Measurements as given in patent US20070142317A1, “Topical composition for treatment of skin disorders” (QLT USA, Inc., priority 2003, published 2007).

Legend:
Jurkat T cells = assay: TUNEL apoptosis assay, sequential exposure to dCF then dAd (Example 21); type: cell-based; details: no dCF (0 uM)
Description: (§1) Thus, it is hypothesized that the sequential exposure of the cells to dCF, followed by deoxyadenosine (dAd) will lead to greater levels of apoptosis than dCF alone. […] The cells were then incubated in dAd for 2 more days. At the end of the treatment period, the cells were harvested for analysis by a TUNEL assay, a flow-cytometry-based method to quantify the percentage of cells that have undergone apoptosis. The level of apoptosis is expressed as “% FITC shift”. As a positive control, the cells were exposed to 5 mM camptothecin for 2 days.

U937 monocytoid cells [1] = assay: as above; type: cell-based; details: no dCF (0 uM)
Description: as §1

U937 monocytoid cells [2] = assay: TUNEL assay, dAd added at different times after dCF wash-out (Example 22); type: cell-based; details: dCF 0 μM 2 days, wash, 2 more days
Description: At 0, 6, 24, and 48 hours, 50 μM dAd was added and the cells were incubated for an additional 2 days. At the end of the treatment period, the cells were harvested for analysis by a TUNEL assay, a flow-cytometry-based method to quantify the percentage of cells that have undergone apoptosis. The level of apoptosis is expressed as “% FITC shift”. As a positive control, the cells were exposed to 5 mM camptothecin for 2 days.

U937 monocytoid cells [3] = assay: TUNEL assay, dAd, adenosine and adenine dose ranging (Example 24); type: cell-based; details: 2 days, no dCF
Description: U937 monocytoid cells were cultured in the presence of dAd at various concentrations of dAd (0, 50, 75, 100, 250 and 1000 micromoles/liter). The cells were incubated in dAd for 2 days. At the end of the treatment period, the cells were harvested for analysis by a TUNEL assay, a flow-cytometry-based method to quantify the percentage of cells that have undergone apoptosis. The level of apoptosis expressed as “% FITC shift”. The level of cell cycle arrest is expressed as “% PI shift”. As a positive control, the cells were exposed to 5 mM camptothecin for 2 days.

Jurkat cells [4] = assay: Caspase-3 induction by flow cytometry (Example 31); type: cell-based; details: drug 500 μM, PHA-activated cells
Description: (§2) In a search for a topical agent that can locally deplete levels of T-cells in the skin, apoptotic compounds were evaluated for their mechanisms of action. The ability that […] induce apoptosis by the same mechanisms was examined by cytokine secretion. […] Caspase-3 and cytokine (IL-2, IL-6, TNF, and IFN-γ) levels were determined and compared to controls at 23 and 46 hours. FdA was incorporated to evaluate the effect of the halogen group and Ara-C for its overlapping mechanisms of action. […] At the end of the treatment period, the cells were harvested and Caspase-3 induction was determined using a flow-cytometry-based method to quantify the percentage of cells that induced Caspase-3. The level of apoptosis is expressed as “% FITC shift”. Cytokine secretion (IL-2, IL-6, TNF, and IFN-γ) was measured at the same time by ELISA and is expressed in pg/mL. […]

U-937 cells [5] = assay: Caspase-3 induction by flow cytometry (Example 31); type: cell-based; details: drug 500 μM, LPS-activated cells
Description: as §2

U-937 cells [6] = assay: Cytokine secretion by ELISA (Example 31); type: cell-based; details: for Cytokine Secretion IL-6 pg/ml Mean of 3 Replicates: drug 500 μM, LPS-activated cells
Description: as §2

Jurkat cells [7] = assay: Cytokine secretion by ELISA (Example 31); type: cell-based; details: for Cytokine Secretion IL-2 pg/ml Mean of 3 Replicates: PHA-activated cells
Description: In a search for a topical agent that can locally deplete levels of T-cells in the skin, apoptotic compounds were evaluated for their mechanisms of action. The ability that […] induce apoptosis by the same mechanisms was examined by cytokine secretion. […] At the end of the treatment period, the cells were harvested and Caspase-3 induction was determined using a flow-cytometry-based method to quantify the percentage of cells that induced Caspase-3. The level of apoptosis is expressed as “% FITC shift”. Cytokine secretion (IL-2, IL-6, TNF, and IFN-γ) was measured at the same time by ELISA and is expressed in pg/mL.

U-937 cells [8] = assay: Toxicity to U-937 cells (summary in Example 29); type: cell-based
[9] = tested on: monocytes and lymphocytes; assay: Toxicity of dAdo to monocytes and lymphocytes; type: cell-based
U937 monocytoid cells [10] = assay: TUNEL assay, dAd added at different times after dCF wash-out (Example 22); type: cell-based; details: dCF 0 μM 2 days, wash, 2 more days; remark: listed apart in the source
lymphocytes = details: cited from earlier work
[11] = Calculated concentration in the skin assuming 7% penetration
[12] = 50 μM dAd added 0 hr after wash-out
[13] = 50 μM dAd added 6 hr after wash-out
[14] = 50 μM dAd added 24 hr after wash-out
[15] = 50 μM dAd added 48 hr after wash-out
[16] = drug 50 uM, listed as dAd (Acros)
[17] = drug 50 uM, listed as dAd (Sigma)
[18] = drug 100 uM, listed as dAd (Acros)
[19] = drug 100 uM, listed as dAd (Sigma)
[20] = drug 250 uM, listed as dAd (Acros)
[21] = drug 250 uM, listed as dAd (Sigma)
[22] = drug 1000 uM, listed as dAd (Acros)
[23] = drug 1000 uM, listed as dAd (Sigma)

- Concentration in the skin assuming 7% penetration ([11]; topical concentration 0.00005%): 0.14 µM
- Concentration in the skin assuming 7% penetration ([11]; topical concentration 0.0005%): 1.39 µM
- Concentration in the skin assuming 7% penetration ([11]; topical concentration 0.005%): 13.93 µM
- Concentration in the skin assuming 7% penetration ([11]; topical concentration 0.01%): 27.86 µM
- Concentration in the skin assuming 7% penetration ([11]; topical concentration 0.05%): 139.31 µM
- Concentration in the skin assuming 7% penetration ([11]; topical concentration 0.1%): 278.62 µM
- Concentration in the skin assuming 7% penetration ([11]; topical concentration 0.5%): 1393.09 µM
- Concentration in the skin assuming 7% penetration ([11]; topical concentration 1%): 2786.18 µM
- Concentration in the skin assuming 7% penetration ([11]; topical concentration 3%): 8358.54 µM
- Concentration in the skin assuming 7% penetration ([11]; topical concentration 5%): 13930.90 µM
SMILES: Nc1ncnc2c1ncn2[C@H]1C[C@H](O)[C@@H](CO)O1 [dAd, 2′-deoxyadenosine]
- % FITC Shift (Jurkat T cells; dAd 10 uM 2 days): 1.6%
- % FITC Shift (Jurkat T cells; dAd 50 uM 2 days): 4.2%
- % FITC Shift (Jurkat T cells; dAd 250 uM 2 days): 22.2%
- % FITC Shift (U937 monocytoid cells [1]; dAd 10 uM 2 days): 1.8%
- % FITC Shift (U937 monocytoid cells [1]; dAd 50 uM 2 days): 2.6%
- % FITC Shift (U937 monocytoid cells [1]; dAd 250 uM 2 days): 92%
- % FITC Shift (U937 monocytoid cells [2]; [12]): 1.6%
- % FITC Shift (U937 monocytoid cells [2]; [13]): 2.2%
- % FITC Shift (U937 monocytoid cells [2]; [14]): 2.2%
- % FITC Shift (U937 monocytoid cells [2]; [15]): 1.0%
- concentration at which cell cycle arrest begins (U937 monocytoid cells [3]): 75 µM
- concentration at which apoptosis is induced (U937 monocytoid cells [3]; progressively more at 250 and 1000): 100 µM
- % FITC Shift (U937 monocytoid cells [3]; [16]): 0.7%
- % PI Shift (U937 monocytoid cells [3]; [16]): 2.9%
- % FITC Shift (U937 monocytoid cells [3]; [17]): 1.5%
- % PI Shift (U937 monocytoid cells [3]; [17]): 3.2%
- % FITC Shift (U937 monocytoid cells [3]; drug 75 uM): 1.8%
- % PI Shift (U937 monocytoid cells [3]; drug 75 uM, listed as dAd (Acros)): 7.1%
- % PI Shift (U937 monocytoid cells [3]; drug 75 uM, listed as dAd (Sigma)): 8.8%
- % FITC Shift (U937 monocytoid cells [3]; [18]): 3.5%
- % PI Shift (U937 monocytoid cells [3]; [18]): 9.8%
- % FITC Shift (U937 monocytoid cells [3]; [19]): 9.0%
- % PI Shift (U937 monocytoid cells [3]; [19]): 12.1%
- % FITC Shift (U937 monocytoid cells [3]; [20]): 54.1%
- % PI Shift (U937 monocytoid cells [3]; [20]): 14.6%
- % FITC Shift (U937 monocytoid cells [3]; [21]): 65.8%
- % PI Shift (U937 monocytoid cells [3]; [21]): 12.0%
- % FITC Shift (U937 monocytoid cells [3]; [22]): 80.2%
- % PI Shift (U937 monocytoid cells [3]; [22]): 32.6%
- % FITC Shift (U937 monocytoid cells [3]; [23]): 79.2%
- % PI Shift (U937 monocytoid cells [3]; [23]): 29.5%
- Caspase-3 Induction % FITC Shift - Mean of 3 Replicates (Jurkat cells [4]; 23 hr): 73%
- Caspase-3 Induction % FITC Shift - Mean of 3 Replicates (Jurkat cells [4]; 46 hr): 92%
- Caspase-3 Induction % FITC Shift - Mean of 3 Replicates (U-937 cells [5]; 23 hr): 67%
- Caspase-3 Induction % FITC Shift - Mean of 3 Replicates (U-937 cells [5]; 46 hr): 43%
- Cytokine Secretion IL-6 pg/ml Mean of 3 Replicates (U-937 cells [6]; 23 hr): 4 pg/mL
- IL-6 inhibition after Caspase-3 induction (U-937 cells [6]; 46 hours, compared to no drug+LPS): 55%
- Cytokine Secretion IL-6 pg/ml Mean of 3 Replicates (U-937 cells [6]; 46 hr): 4 pg/mL
- Cytokine Secretion IL-2 pg/ml Mean of 3 Replicates (Jurkat cells [7]; 23 hr, drug 500 μM): 17 pg/mL
- IL-2 inhibition (Jurkat cells [7]; 46 hours, compared to no drug+PHA): 61%
- Cytokine Secretion IL-2 pg/ml Mean of 3 Replicates (Jurkat cells [7]; 46 hr, drug 500 μM): 49 pg/mL
- IL-2 concentration (Jurkat cells [7]; Jurkat cells activated by PHA, 46 hours, drug 500 μM): 49 pg/mL
- concentration toxic to U-937 cells on its own (U-937 cells [8]): 250 µM
- concentrations toxic to monocytes and lymphocytes [9]: greater than 100 μM
- % PI Shift (U937 monocytoid cells [10]; [12]): 1.4%
- % PI Shift (U937 monocytoid cells [10]; [13]): 1.3%
- % PI Shift (U937 monocytoid cells [10]; [14]): 1.1%
- % PI Shift (U937 monocytoid cells [10]; [15]): 2.0%
- potentiation of the growth inhibitory effect of dCF (lymphocytes): up to 1,000 fold
